# From patent publication US20090036540A1, “Guanylhydrazones in Methods of Treatment or Diagnosis as Modulators of Signal Transduction” (Cytokine PharmaSciences, Inc., priority 2003, published 2009)
# Columns and labels:
# [1] = system: Peripheral Blood Mononuclear Cells; assay: PepChip kinome array: in vitro phosphorylation of peptide array by lysates of LPS-stimulated PBMCs; assay type: cell-based, human
# Experimental: Peripheral Blood Mononuclear Cells (PBMCs) were isolated from peripheral blood from healthy volunteers using standard density-gradient centrifugation over Ficoll-Paque Plus (Amersham Pharmacia Biotech AB, Uppsala, Sweden) after washing in resuspension in IMDM supplemented with 10% FBS, penicillin, streptomycin and amphotericin (hereafter referred to as complete IMDM).
# For kinome array samples, 10^7 PBMCs were suspended in 5 ml media (IMDM supplemented with 1.0% human serum). LPS stimulation consisted of a […] (37° C., 5% CO2) with 100 ng/ml LPS (E. coli, serotype 0111:B4). CNI treated PBMCs were maintained in media dosed with 1.0 μM CNI-1493 (Cytokine PharmaSciences, Inc.) 1 hour before and during incubation for LPS stimulation. Stimulations were terminated by an ice-cold PBS wash. PBMCs were lysed in 200 μl cell lysis buffer (20 mM Tris-HCl (pH 7.5), 150 mM NaCl, 1 mM Na2EDTA, 1 mM EGTA, 1% Triton, 2.5 mM sodium pyrophosphate, 1 mM MgCl2, 1 mM beta-glycerophosphate, 1 mM Na3VO4, 1 mM NaF, 1 μg/ml leupeptin, 1 μg/ml aprotinin, 1 mM PMSF) and the volume of the cell lysate were equalised with dH2O. The cell lysates were subsequently cleared on a 0.22 μm filter. PepChip incubation mix was produced by adding 10 μl of filter-cleared activation mix (50% glycerol, 50 μM ATP, 0.05% v/v Brij-35, 0.25 mg/ml BSA, ^33P-γ-ATP (1000 kBq)). Next, the PepChip mix is added onto the chip and the chip is kept at 37° C. in a humidified stove for 90 minutes. Subsequently, the PepChip was washed once with TBST, twice in 2M NaCl and twice in demineralised H2O and air-dry the PepChip slips. The experiments were performed three times in duplicate. The average inter-experimental variance in relative values was less than 5% for all spots.
# The chips were exposed to a phosphoimager plate for 72 hours and the spots were analysed on AIDA analysing software. For graphical visualisation of the spots in FIG. 2 the data of four arrays was averaged to eliminate false positives.
# 4/4 macrophages = assay: Western blot of LPS-stimulated 4/4 macrophages for MAPK signaling molecules; assay type: cell-based, murine; conditions: 0.1 and 1 μM, 1 hour pre-incubation, LPS 100 ng/ml 15 minutes
# Experimental: 4/4 macrophages were used for in vitro experiments and western blot analysis. An in vitro kinase assay was performed to reconfirm findings obtained with western blotting. […] 4/4 macrophages were grown to 70% confluence, pre-incubated for 1 hour with Semapimod (0.1 and 1 μM) and stimulated with LPS (100 ng/ml) for 15 minutes. Cells were harvested in sample buffer and whole cell lysates were loaded onto 10% SDS-PAGE and subsequently transferred to a PVDF membrane. Blots were stained with phospho-specific antibodies for various MAPK signaling molecules. […] Importantly, pRaf protein levels and pPak, upstream of Raf, were not affected due to Semapimod incubation. […] FIG. 6 Western blot: Reduced pP38, pJnk, pErk in 4/4 macrophages treated with Semapimod (1 and 0.1 μM) in LPS present conditions was seen. Moreover, the phosphorylation status of MKK4/7 (upstream of Jnk), and Mek1/2 (upstream of Erk) was affected due to Semapimod treatment. pRaf expression was not influenced by Semapimod. To test for equal loading, western blots were analyzed for actin expression. Similar results were obtained in three independent experiments.
# [2] = CRP serum levels of Crohn's disease patients in the Semapimod pilot study; assay type: in vivo, human
# Description: FIGS. 9A and B show the IHC analysis of Crohn's disease patients who participated in the Semapimod pilot study. […] CRP levels of patient #12 were not affected by Semapimod (e.g. nonresponder). Importantly, pMek1/2 expression was also not affected by Semapimod in this nonresponder. […] This finding correlates with the low CRP levels at baseline (FIG. 9B).
# [3] = lysates of Semapimod-treated, lipopolysaccharide-stimulated PBMCs
smiles,measurement,setting,value
C/C(=N\NC(=N)N)c1cc(NC(=O)CCCCCCCCC(=O)Nc2cc(/C(C)=N/NC(=N)N)cc(/C(C)=N/NC(=N)N)c2)cc(/C(C)=N/NC(=N)N)c1 [Semapimod],"LPS + CNI: peptide phosphorylation, Kinase PKC, Substrate c-RAF","[1]; PBMC lysate, 1.0 μM CNI-1493, 100 ng/ml LPS, Control 10764, LPS 13640",9522
same,"LPS + CNI: peptide phosphorylation, Kinase not given, Substrate Tau","[1]; PBMC lysate, 1.0 μM CNI-1493, 100 ng/ml LPS, Control 15846, LPS 10500",27753
same,"LPS + CNI: peptide phosphorylation, Kinase v-Fps, Substrate Caldesmon","[1]; PBMC lysate, 1.0 μM CNI-1493, 100 ng/ml LPS, Control 16002, LPS 22800",31584
same,"LPS + CNI: peptide phosphorylation, Kinase and Substrate not given","[1]; PBMC lysate, 1.0 μM CNI-1493, 100 ng/ml LPS, Control 16320, LPS 822",300
same,"LPS + CNI: peptide phosphorylation, Kinase not given, Substrate GS","[1]; PBMC lysate, 1.0 μM CNI-1493, 100 ng/ml LPS, Control 16920, LPS 19500",23664
same,"LPS + CNI: peptide phosphorylation, Kinase CKII, Substrate GS","[1]; PBMC lysate, 1.0 μM CNI-1493, 100 ng/ml LPS, Control 17680, LPS 5350",13120
same,"LPS + CNI: peptide phosphorylation, Kinase Lck, Substrate Tec","[1]; PBMC lysate, 1.0 μM CNI-1493, 100 ng/ml LPS, Control 18096, LPS 13824",300
same,"LPS + CNI: peptide phosphorylation, Kinase PKC, Substrate Trop","[1]; PBMC lysate, 1.0 μM CNI-1493, 100 ng/ml LPS, Control 18786, LPS 23230",40000
same,"LPS + CNI: peptide phosphorylation, Kinase not given, Substrate GS","[1]; PBMC lysate, 1.0 μM CNI-1493, 100 ng/ml LPS, Control 20736, LPS 20592",26477
same,"LPS + CNI: peptide phosphorylation, Kinase p34cdc2, Substrate Lamin B1","[1]; PBMC lysate, 1.0 μM CNI-1493, 100 ng/ml LPS, Control 21000, LPS 11165",300
same,"LPS + CNI: peptide phosphorylation, Kinase not given, Substrate EIF4F","[1]; PBMC lysate, 1.0 μM CNI-1493, 100 ng/ml LPS, Control 21000, LPS 25200",24624
same,"LPS + CNI: peptide phosphorylation, Kinase PKC, Substrate BICKS","[1]; PBMC lysate, 1.0 μM CNI-1493, 100 ng/ml LPS, Control 23400, LPS 38086",15980
same,"LPS + CNI: peptide phosphorylation, Kinase PKC, Substrate MARCKS","[1]; PBMC lysate, 1.0 μM CNI-1493, 100 ng/ml LPS, Control 23714, LPS 16401",13426
same,"LPS + CNI: peptide phosphorylation, Kinase not given, Substrate MBP","[1]; PBMC lysate, 1.0 μM CNI-1493, 100 ng/ml LPS, Control 26208, LPS 36442",51888
same,"LPS + CNI: peptide phosphorylation, Kinase not given, Substrate Vimentin","[1]; PBMC lysate, 1.0 μM CNI-1493, 100 ng/ml LPS, Control 26240, LPS 30889",59840
same,"LPS + CNI: peptide phosphorylation, Kinase not given, Substrate MBP","[1]; PBMC lysate, 1.0 μM CNI-1493, 100 ng/ml LPS, Control 26481, LPS 23852",51414
same,"LPS + CNI: peptide phosphorylation, Kinase p42/44, Substrate MBP","[1]; PBMC lysate, 1.0 μM CNI-1493, 100 ng/ml LPS, Control 28710, LPS 536",23296
same,"LPS + CNI: peptide phosphorylation, Kinase not given, Substrate GS","[1]; PBMC lysate, 1.0 μM CNI-1493, 100 ng/ml LPS, Control 31500, LPS 31050",51102
same,"LPS + CNI: peptide phosphorylation, Kinase p42/44, Substrate MBP","[1]; PBMC lysate, 1.0 μM CNI-1493, 100 ng/ml LPS, Control 33814, LPS 14514",26352
same,"LPS + CNI: peptide phosphorylation, Kinase PKA, Substrate MARCKS","[1]; PBMC lysate, 1.0 μM CNI-1493, 100 ng/ml LPS, Control 34295, LPS 31647",62514
same,"LPS + CNI: peptide phosphorylation, Kinase not given, Substrate c-Src","[1]; PBMC lysate, 1.0 μM CNI-1493, 100 ng/ml LPS, Control 34410, LPS 2470",319
same,"LPS + CNI: peptide phosphorylation, Kinase not given, Substrate Vimentin","[1]; PBMC lysate, 1.0 μM CNI-1493, 100 ng/ml LPS, Control 37760, LPS 18020",44200
same,"LPS + CNI: peptide phosphorylation, Kinase not given, Substrate MBP","[1]; PBMC lysate, 1.0 μM CNI-1493, 100 ng/ml LPS, Control 38634, LPS 36464",38354
same,"LPS + CNI: peptide phosphorylation, Kinase not given, Substrate MBP","[1]; PBMC lysate, 1.0 μM CNI-1493, 100 ng/ml LPS, Control 40793, LPS 36600",55572
same,"LPS + CNI: peptide phosphorylation, Kinase PKC, Substrate MBP","[1]; PBMC lysate, 1.0 μM CNI-1493, 100 ng/ml LPS, Control 47940, LPS 18624",15680
same,"LPS + CNI: peptide phosphorylation, Kinase not given, Substrate MLC-2","[1]; PBMC lysate, 1.0 μM CNI-1493, 100 ng/ml LPS, Control 48400, LPS 53482",33674
same,"LPS + CNI: peptide phosphorylation, Kinase not given, Substrate MBP","[1]; PBMC lysate, 1.0 μM CNI-1493, 100 ng/ml LPS, Control 60630, LPS 62900",65076
same,"LPS + CNI: peptide phosphorylation, Kinase PKA, p42/44, Substrate CgA","[1]; PBMC lysate, 1.0 μM CNI-1493, 100 ng/ml LPS, Control 62088, LPS 548",6700
same,capacity to phosphorylate peptides representing consensus sequences for MAP kinase family members,[1]; [3],strongly impaired
same,phosphorylation of a peptide representing a consensus phosphorylation site for MEK kinase,[1]; [3],inhibited
same,phosphorylation of a peptide representing the PKC consensus phosphorylation site in c-Raf,[1]; [3],not impaired
same,expression of pMKK4/7,4/4 macrophages,reduced expression
same,expression of pMek1/2,4/4 macrophages,reduced expression
same,"pPak, upstream of Raf",4/4 macrophages,not affected
same,pRaf protein levels,4/4 macrophages,not affected
same,phosphorylated-Erk1/2,4/4 macrophages,decrease
same,phosphorylated-Jnk,4/4 macrophages,decrease
same,phosphorylated-P38,4/4 macrophages,decrease
same,"CRP, responders","[2]; Crohn's disease patients n=5, all responders",CRP decrease
same,"CRP levels, nonresponder",[2]; patient #12,not affected
